# Experimental data reported in US20140051650A1, “VAGINAL COMPOSITIONS BASED ON ALKYL POLYGLUCOSIDES” (EFFIK S.A., priority 2011, published 2014).
# Tests used:
# [1] = tested on: Gardnerella vaginalis ATCC 14018; experiment: MIC against Gardnerella vaginalis; format: cell-based; details: substance alone
# Protocol: The Gardnerella vaginalis ATCC 14018 strain, the Neisseria gonorrhoeae ATCC 43069 strain and the Candida albicans ATCC 10231 strain were also used for the experiment.
# The other assayed microbial strains were cultured in the liquid media and in the incubation conditions specified in table A, following the operating procedure described above.
# The assay was carried out in 96-well microtitre plates. 50 μl of substance solution at the “mother” concentration alongside 50 μl of liquid medium at double concentration were deposited in the first well of each of the 8 rows while 50 μl of liquid medium at normal concentration were deposited in the remaining 11 wells. Starting from the first well of each row, 50 μl volumes were transferred from each well to the subsequent one 10 times, thus obtaining a series of 11 dilutions after doubling. The 12th well of each row was kept substance-free as a function of positive control of the bacterial growth.
# Subsequently, 50 μl of diluted bacterial inoculum as specified previously were deposited in all wells of the plate, except for the 11th of each row. Only the liquid medium at single concentration but bacteria-free, was deposited in the 11th well, with the aim of providing negative control for each row. The described scheme was used for the assay with each of the assayed microbial strains. […]
# vaginal lactobacilli = experiment: Activity on vaginal lactobacilli compared with the pathogen strains; format: cell-based; details: lactobacilli versus G. vaginalis
# Protocol: By comparison, the lactobacillus strains dominating in the physiological colonization of the vaginal mucosa typical in healthy women were also tested. Thus, such explorative activity was carried out on such strains with the aim of evaluating a selectivity of the compounds of the invention with respect to the pathogenic microorganisms with respect to the lactobacillus bacterial flora. Immediately after determining the value of the MIC for each substance, a volume equivalent to 50 μl was taken from each well and streaked on the surface of plates containing the solid medium. The plates were subsequently incubated at the conditions indicated for each microbial strain. After incubation at 37° C. for 24 hours, the number of colonies grown on the medium surface was counted thus determining the number of bacteria that survived after 24 hours of contact with the substance at the concentration present in the well. The MBC value defined as the lowest concentration of each substance capable of reducing the bacterial load by 99.9% in the previously defined assay conditions was determined through comparison between the number of bacteria that survived in each well and that of the bacterial inoculum deposited initially.
substance,measurement,setting,value
lauryl glucoside/C12-C16 alkyl polyglucoside [Substance A2],MIC,[1],0.0048%
same,"MBC values in vaginal lactobacilli, times higher than those observed in G. vaginalis",vaginal lactobacilli,about 15 times
